Where “and” joins values, the source holds several entries; their conditions need not be identical. Equal values may be shown once. Read-outs that look alike come from different tables or passages of the source.
Legend:
[1] = cited from earlier work
[2] = duodenal, 2 mg levodopa lauryl sulfate/rat (0.85 mg levodopa equivalent/rat), individual rats
[3] = iv, 0.4 mg levodopa/kg, individual rats 1-3 (Table D)
in vivo = details: rat, plasma, iv, 0.4 mg/kg, Plasma level (levodopa), 0.4 mg levodopa/kg, individual rats 1-3 (Table D)
[4] = after oral administration; cited from earlier work
[5] = Intravenous levodopa group of Example 10, levodopa plasma level; assay type: in vivo; details: 0.4 mg levodopa/kg, individual rats 1-3 (Table C)
Experimental: Another group of rats were treated with levodopa intravenously, at a dose of 0.4 mg/kg.

[6] = with carbidopa; cited from earlier work
[7] = cited from earlier work; remark: listed apart in the source

C[C@@](Cc1ccc(O)c(O)c1)(NN)C(=O)O [Carbidopa, (−)-L-((alpha)-hydrazino-((alpha)-methyl-(beta)-(3,4-dihydroxybenzene)propanoic acid monohydrate]
solubility in water [1]: slightly soluble in water

CCCCCCCCCCCCOS(=O)(=O)O.N[C@@H](Cc1ccc(O)c(O)c1)C(=O)O [Levodopa lauryl sulfate, Levodopa-Lauryl Sulfate Complex]
Plasma level (levodopa) ([2]; time 0 h): 9.42 ng/mL and 8.7 ng/mL and 8.55 ng/mL | Plasma level (levodopa) ([2]; time 1 h): 57.3 ng/mL and 51.3 ng/mL and 43.7 ng/mL | Plasma level (levodopa) ([2]; time 2 h): 21.3 ng/mL and 22 ng/mL and 9.24 ng/mL | Plasma level (levodopa) ([2]; time 3 h): 12 ng/mL and 11.6 ng/mL and 24 ng/mL | Plasma level (levodopa) ([2]; time 4 h): 8.07 ng/mL and 7.45 ng/mL and 19.6 ng/mL

N[C@@H](Cc1ccc(O)c(O)c1)C(=O)O [Levodopa, (−)-L-(alpha)-amino-(beta)-(3,4-dihydroxybenzene) propanoic acid]
Plasma level (levodopa) ([3]; time 0 h): 0 ng/mL | Plasma level (levodopa) ([3]; time 0.033 h): 336 ng/mL and 247 ng/mL and 690 ng/mL | Plasma level (levodopa) ([3]; time 0.5 h): 16 ng/mL and 11.4 ng/mL and 41.6 ng/mL | Plasma level (levodopa) ([3]; time 1 h): 7.34 ng/mL and 11.5 ng/mL and 18.2 ng/mL | Plasma level (levodopa) ([3]; time 1.5 h): 6.51 ng/mL and 0 ng/mL and 13.8 ng/mL | Plasma level (levodopa) ([3]; time 2 h): 0 ng/mL and 5.82 ng/mL and 8.23 ng/mL | Plasma level (levodopa) ([3]; time 3 h): 0 ng/ml (2×) and 5.53 ng/ml | solubility in water [1]: slightly soluble in water | concentration at 0 h (in vivo): 0 ng/mL | time within which practically all absorption of levodopa occurs [4]: ≤ 4 h | Plasma level (levodopa) ([5]; time 0 h): 0 ng/mL | Plasma level (levodopa) ([5]; time 0.033 h): 336 ng/mL and 247 ng/mL and 690 ng/mL | Plasma level (levodopa) ([5]; time 0.5 h): 16 ng/mL and 11.4 ng/mL and 41.6 ng/mL | Plasma level (levodopa) ([5]; time 1 h): 7.34 ng/mL and 11.5 ng/mL and 18.2 ng/mL | Plasma level (levodopa) ([5]; time 1.5 h): 6.51 ng/mL and 0 ng/mL and 13.8 ng/mL | Plasma level (levodopa) ([5]; time 2 h): 0 ng/mL and 5.82 ng/mL and 8.23 ng/mL | Plasma level (levodopa) ([5]; time 3 h): 0 ng/ml (2×) and 5.53 ng/ml | concentration at 0 h ([5]; Sprague-Dawley, rat, plasma, 0.4 mg/kg, time 0 h): 0 ng/mL | plasma half-life of levodopa [6]: 1.5 h | average intraindividual coefficient of variation for the plasma levodopa concentrations ([7]; after oral therapy (sustained-release tablets)): 34% | average intraindividual coefficient of variation for the plasma levodopa concentrations ([7]; during continuous intestinal infusion, p<0.01): 14%

— patent US20050163850A1, “Administration of levodopa and carbidopa” (priority 2003, published 2005)
